From US20230033360A1, “COMPOUNDS AS CD73 INHIBITORS” (BioArdis LLC, priority 2019, published 2023) come the findings set out here.

The assay has as its target T1, Recombinant Human 5′-Nucleotidase (CD73) (Homo sapiens, UniProt P21589).
T1 construct: CHO derived CD73 (Trp27-Lys547), with a C-terminal 6-His tag; 6-His (C); purchased R&D 5795-EN; host or cells: CHO
T1 sequence (P21589 27-547): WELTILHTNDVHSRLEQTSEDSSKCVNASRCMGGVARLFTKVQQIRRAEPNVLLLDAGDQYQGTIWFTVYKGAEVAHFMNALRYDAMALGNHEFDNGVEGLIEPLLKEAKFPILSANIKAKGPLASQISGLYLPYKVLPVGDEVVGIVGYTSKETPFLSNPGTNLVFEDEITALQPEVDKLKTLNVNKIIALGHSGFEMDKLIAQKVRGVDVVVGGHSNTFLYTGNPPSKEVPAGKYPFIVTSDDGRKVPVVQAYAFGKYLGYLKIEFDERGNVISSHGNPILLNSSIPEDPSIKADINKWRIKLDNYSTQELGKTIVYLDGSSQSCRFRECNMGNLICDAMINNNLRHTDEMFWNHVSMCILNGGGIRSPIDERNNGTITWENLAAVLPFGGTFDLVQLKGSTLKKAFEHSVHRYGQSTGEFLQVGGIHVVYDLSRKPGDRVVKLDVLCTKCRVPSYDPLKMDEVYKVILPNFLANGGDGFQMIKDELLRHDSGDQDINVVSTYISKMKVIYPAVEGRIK
Put plainly: CD73 Enzyme Assay (PiColorLock inorganic phosphate detection, AMP substrate). Format: biochemical. Conditions: human CD73 0.5 nM, AMP 30 μM, 20 min at 37° C., absorbance 635 nm; read-out: Potency (IC50). From the text: Soluble recombinant CD73 catalyzes the conversion of adenosine monophosphate (AMP) to adenosine and inorganic phosphate. The phosphate detection reagent, PiColorLock™ (Innova Bioscience, Cat #303-0125) is based on the change in absorbance of the dye malachite green in the presence of inorganic phosphate (Pi) and this property can be exploited to measure any enzyme that generates Pi. Recombinant Human 5′-Nucleotidase (CD73) (R&D #5795-EN, CHO derived CD73 (Trp27-Lys547), with a C-terminal 6-His tag) was used in the enzymatic assay. This assay, run in a 384-well plate format (Corning® NBS™ 384 well plates, Cat #3640), is a generic method for measuring inorganic phosphate. The basic assay procedure involves two steps: 1) Enzyme reaction: The CD73 enzyme (R&D #5795-EN) is incubated in the presence or absence of compounds. AMP (sigma, cat #01930) is added to start the […] reaction. 2) Detection step: Gold mix is added to the assay system, then stabilizers are added. After incubation the absorbance of the solution is read at OD 635 nm. The recorded OD signal is proportional to the enzyme activity.
Briefly, 25 μl human CD73 (0.5 nM final concentration) in the enzymatic buffer solutions (20 mM Tris, 25 mM NaCl, 1 mM MgCl2, pH 7.5, 0.005% Tween-20) were mixed with various concentrations of the test compound (dissolved in 100% DMSO). These solutions were incubated for 15 min at 25° C., and subsequently 25 μl AMP (30 μM final concentration) was added to start the reaction. The final reaction mixture of enzyme-substrate-compound was incubated for 20 min at 37° C. Meanwhile ‘Gold mix’ was prepared shortly before use by adding 1/100 vol. of accelerator to the PiColorLock™ Gold reagent. 12 μL/well of the ‘Gold mix’ was added to assay plate containing 50 μL enzyme reaction buffer and incubated at 25° C. for 5 min. 5 μL/well stabilizer was added to the assay plate and incubated at 25° C. for 30 min. The absorbance of the well solutions was measured at 635 nm on a Spark 10M instrument (TECAN).
The percent (%) inhibition at each concentration of a compound was calculated relative to the […] value in the Max and Min control wells contained within each assay plate. The Max control wells contained enzyme and substrate as 0% inhibition, and the Min control wells only contained substrate without enzyme as 100% inhibition. The concentrations and percent inhibition values for a test compound are plotted and the concentration of the compound required to achieve 50% inhibition (IC50) was determined with a four-parameter logistic dose response equation.
`C[C@H](Nc1cc(Cl)nn2c(C3O[C@H](COP(=O)(O)CP(=O)(O)O)[C@@H](O)[C@H]3O)cnc12)c1ccccc1` (stereo partly drawn) [Example S18, (((((2R,3S,4R)-5-(6-chloro-8-(((S)-1-phenylethyl)amino)imidazo[1,2-b]pyridazin-3-yl)-3,4-dihydroxytetrahydrofuran-2-yl)methoxy)(hydroxy)phosphoryl)methyl)phosphonic acid]: the IC50 was 1 to 9.9 nM.

Take `C[C@H](Nc1cc(Cl)nn2c(C3O[C@H](COP(=O)(O)CP(=O)(O)O)[C@@H](O)[C@@H]3F)cnc12)c1ccccc1F` (stereo partly drawn) [Example S19, (((((2R,3R,4S)-5-(6-chloro-8-(((S)-1-(2-fluorophenyl)ethyl)amino)imidazo[1,2-b]pyridazin-3-yl)-4-fluoro-3-hydroxytetrahydrofuran-2-yl)methoxy)(hydroxy)phosphoryl)methyl)phosphonic acid]: the IC50 was in the range of 10 to 99 nM.

As for `O=P(O)(O)CP(=O)(O)OC[C@H]1OC(c2cnc3c(N4CCCC4)cc(Cl)nn23)[C@H](O)[C@@H]1O` (stereo partly drawn) [Example S20, (((((2R,3S,4R)-5-(6-chloro-8-(pyrrolidin-1-yl)imidazo[1,2-b]pyridazin-3-yl)-3,4-dihydroxytetrahydrofuran-2-yl)methoxy)(hydroxy)phosphoryl)methyl)phosphonic acid], the IC50 fell in the range of 1 to 9.9 nM. On to `O=P(O)(O)CP(=O)(O)OC[C@H]1OC(c2cnc3c(N4CCCC4)cc(Cl)nn23)[C@@H](F)[C@@H]1O` (stereo partly drawn) [Example S21, (((((2R,3R,4S)-5-(6-chloro-8-(pyrrolidin-1-yl)imidazo[1,2-b]pyridazin-3-yl)-4-fluoro-3-hydroxytetrahydrofuran-2-yl)methoxy)(hydroxy)phosphoryl)methyl)phosphonic acid], for which the IC50 fell in the range of 10 to 99 nM. Turning to `O=P(O)(O)CP(=O)(O)OC[C@H]1OC(c2cnc3c(N4CCC(F)(F)C4)cc(Cl)nn23)[C@@H](F)[C@@H]1O` (stereo partly drawn) [Example S22, (((((2R,3R,4S)-5-(6-chloro-8-(3,3-difluoropyrrolidin-1-yl)imidazo[1,2-b]pyridazin-3-yl)-4-fluoro-3-hydroxytetrahydrofuran-2-yl)methoxy)(hydroxy)phosphoryl)methyl)phosphonic acid], the half-inhibitory concentration (IC50) lay in the range of 10 to 99 nM.

Turning to `O=P(O)(O)CP(=O)(O)OC[C@H]1OC(c2cnc3c(N4CC5CC5C4)cc(Cl)nn23)[C@H](O)[C@@H]1O` (stereo partly drawn) [Example S23, (((((2R,3S,4R)-5-(8-(3-azabicyclo[3.1.0]hexan-3-yl)-6-chloroimidazo[1,2-b]pyridazin-3-yl)-3,4-dihydroxytetrahydrofuran-2-yl)methoxy)(hydroxy)phosphoryl)methyl)phosphonic acid], the IC50 was under 1 nM. Consider `O=P(O)(O)CP(=O)(O)OC[C@H]1OC(c2cnc3c(N4CC5CCCC5C4)cc(Cl)nn23)[C@@H](F)[C@@H]1O` (stereo partly drawn) [Example S24, (((((2R,3R,4S)-5-(6-chloro-8-(hexahydrocyclopenta[c]pyrrol-2 (1H)-yl)imidazo[1,2-b]pyridazin-3-yl)-4-fluoro-3-hydroxytetrahydrofuran-2-yl)methoxy)(hydroxy)phosphoryl)methyl)phosphonic acid], for which the IC50 fell in the range of 1 to 9.9 nM. For `O=P(O)(O)CP(=O)(O)OC[C@H]1OC(c2cnc3c(N4CCc5ccccc54)cc(Cl)nn23)[C@H](O)[C@@H]1O` (stereo partly drawn) [Example S25, (((((2R,3S,4R)-5-(6-chloro-8-(indolin-1-yl)imidazo[1,2-b]pyridazin-3-yl)-3,4-dihydroxytetrahydrofuran-2-yl)methoxy)(hydroxy)phosphoryl)methyl)phosphonic acid], the IC50 was 1 to 9.9 nM.

As to `O=P(O)(O)CP(=O)(O)OC[C@H]1OC(c2cnc3c(N4CCCCC4)cc(Cl)nn23)[C@H](O)[C@@H]1O` (stereo partly drawn) [Example S26, (((((2R,3S,4R)-5-(6-chloro-8-(piperidin-1-yl)imidazo[1,2-b]pyridazin-3-yl)-3,4-dihydroxytetrahydrofuran-2-yl)methoxy)(hydroxy)phosphoryl)methyl)phosphonic acid], the IC50 lay within 1 to 9.9 nM.

For the compound `O=P(O)(O)CP(=O)(O)OC[C@H]1OC(c2cnc3c(N4CCCC[C@H]4c4ccccc4)cc(Cl)nn23)[C@H](O)[C@@H]1O` (stereo partly drawn) [Example S27, (((((2R,3S,4R)-5-(6-chloro-8-((S)-2-phenylpiperidin-1-yl)imidazo[1,2-b]pyridazin-3-yl)-3,4-dihydroxytetrahydrofuran-2-yl)methoxy)(hydroxy)phosphoryl)methyl)phosphonic acid], the IC50 was 1 to 9.9 nM. On to `O=P(O)(O)CP(=O)(O)OC[C@H]1OC(c2cnc3c(N4CCc5ccccc5C4)cc(Cl)nn23)[C@H](O)[C@@H]1O` (stereo partly drawn) [Example S28, (((((2R,3S,4R)-5-(6-chloro-8-(3,4-dihydroisoquinolin-2 (1H)-yl)imidazo[1,2-b]pyridazin-3-yl)-3,4-dihydroxytetrahydrofuran-2-yl)methoxy)(hydroxy)phosphoryl)methyl)phosphonic acid], for which the IC50 is 1 to 9.9 nM. In the case of `O=P(O)(O)CP(=O)(O)OC[C@H]1OC(c2cnc3c(N4CCC(F)(F)CC4)cc(Cl)nn23)[C@H](O)[C@@H]1O` (stereo partly drawn) [Example S29, (((((2R,3S,4R)-5-(6-chloro-8-(4,4-difluoropiperidin-1-yl)imidazo[1,2-b]pyridazin-3-yl)-3,4-dihydroxytetrahydrofuran-2-yl)methoxy)(hydroxy)phosphoryl)methyl)phosphonic acid], the IC50 lay within 1 to 9.9 nM. On to `O=P(O)(O)CP(=O)(O)OC[C@H]1OC(c2cnc3c(OC4CCCC4)cc(Cl)nn23)[C@H](O)[C@@H]1O` (stereo partly drawn) [Example S30, (((((2R,3S,4R)-5-(6-chloro-8-(cyclopentyloxy)imidazo[1,2-b]pyridazin-3-yl)-3,4-dihydroxytetrahydrofuran-2-yl)methoxy)(hydroxy)phosphoryl)methyl)phosphonic acid], for which the IC50 fell in the range of 1 to 9.9 nM. Regarding `O=P(O)(O)CP(=O)(O)OC[C@H]1O[C@@H](c2cnc3c(NC4CCCC4)cc(Cl)nn23)[C@@H](F)[C@@H]1O` [Example S31, (((((2R,3R,4S,5S)-5-(6-chloro-8-(cyclopentylamino)imidazo[1,2-b]pyridazin-3-yl)-4-fluoro-3-hydroxytetrahydrofuran-2-yl)methoxy)(hydroxy)phosphoryl)methyl)phosphonic acid], the IC50 is 10 to 99 nM. For `CN(c1cc(Cl)nn2c([C@@H]3O[C@H](COP(=O)(O)CP(=O)(O)O)[C@@H](O)[C@H]3O)cnc12)C1CCCC1` [Example S32] the value was 1 to 9.9 nM; for `O=P(O)(O)CP(=O)(O)OC[C@H]1O[C@@H](c2cnc3c(NC45CCC(CC4)C5)cc(Cl)nn23)[C@H](O)[C@@H]1O` [Example S33, [({[(2R,3S,4R,5S)-5-(8-{bicyclo[2.2.1]heptan-1-ylamino}-6-chloroimidazo[1,2-b]pyridazin-3-yl)-3,4-dihydroxyoxolan-2-yl]methoxy}(hydroxy)phosphoryl)methyl]phosphonic acid], 1 to 9.9 nM. `O=P(O)(O)CP(=O)(O)OC[C@H]1O[C@@H](c2cnc3c(N4CCC[C@H]4c4ccccc4F)cc(Cl)nn23)[C@H](O)[C@@H]1O` [Example S34, (((((2R,3S,4R,5S)-5-(6-chloro-8-((S)-2-(2-fluorophenyl)pyrrolidin-1-yl)imidazo[1,2-b]pyridazin-3-yl)-3,4-dihydroxytetrahydrofuran-2-yl)methoxy)(hydroxy)phosphoryl)methyl)phosphonic acid]: the IC50 is 1 to 9.9 nM.

What is called IC50 is the midpoint of a concentration-inhibition curve.
